# From patent publication US7534871B2, “Preparation and use of carbohydrate-based bicyclic ring structures with antimicrobial and cytostatic activity” (Kemin Pharma B.V.B.A., priority 2004, dated 2009)
# How the values were obtained:
# [1] = tested on: human T-lymphocyte cells (CEM/0); experiment: Cytostatic activity: inhibition of proliferation of CEM/0 cells; type: cell-based; details: CCRF-CEM, 50% inhibitory concentration, cell proliferation, read-out: IC50 CEM/0
# Method: (§1) The compounds were tested for anti-tumor activity via the inhibitory effects on the proliferation of murine leukemia cells (L1210/0), murine mammary carcinoma cells (FM3A), human T-lymphocyte cells (Molt4/C8, CEM/0) and human cervix carcinoma cells (HeLa).
# HSV-1 (KOS) = experiment: Anti-viral activity: HSV-1-induced cytopathicity in human embryo fibroblast E6SM cell cultures; type: cell-based, herpes simplex virus (HSV); details: Human alphaherpesvirus 1, 50%
# HSV-2 (G) = experiment: Anti-viral activity: HSV-2-induced cytopathicity in human embryo fibroblast E6SM cell cultures; type: cell-based, herpes simplex virus (HSV); details: Human alphaherpesvirus 2, 50%
# HIV-2 (ROD) = experiment: Anti-viral activity: HIV-2-induced cytopathicity in human CEM cell cultures; type: cell-based; details: Human immunodeficiency virus 2, CCRF-CEM; concentration required to inhibit HIV-induced cytopathicity in human CEM cell cultures by 50%
# HIV-1 (IIIB) = experiment: microbe, parasite or virus in culture; type: cell-based; details: Human immunodeficiency virus 1, IIIB, CCRF-CEM; concentration required to inhibit HIV-induced cytopathicity in human CEM cell cultures by 50%
# [2] = tested on: S. aureus ATTC29213 LMG10147; experiment: Anti-bacterial activity, Bioscreen C growth curve: S. aureus; type: cell-based; details: Staphylococcus aureus, 35° C., 16 hours, negative control = 100, read-out: % of growth at 25 PPM compared to the negative control, S. aureus ATTC29213 LMG10147
# Method: (§2) For the determination of the anti-bacterial and anti-fungal activity the Bioscreen C Analyser Labsystems, Finland, was used. This is an automated reader-incubator. It measures growth continuously by vertical photometry (optical density), processes the data and provides a print out of the results. The area under the growth curve is automatically determined via the Biolink software.
# (§3) The inoculum size of the bacteria is standardized to approximately 5×10^5 CFU/ml.
# (§4) For bacteria, the 100-honey-well plates containing test chemical, Mueller-Hinton broth and inoculum (=sample) are incubated at 35° C. for 16 hours. Also wells without inoculum are incubated (=blanco). Yeasts are incubated 35° C. for 24 hours in RPMI 1640+MOPS buffer at 165 mM. Moulds also in RPMI 1640+MOPS buffer at 165 mM are incubated 25° C. for 5 days. All micro-organisms are screened against a known concentration of the reference antibiotics or antimycotics such as vancomycin, penicillin G, gentamicin or amphotericin B. The growth curve and the area under the growth curve can be determined using the Biolink software; this is illustrated in FIG. 1.
# (§5) The area of the blanco is subtracted from the area of the sample, this number (delta) gives us an indication of the biological activity of the molecules tested and can be expressed as a % of growth at a specific dose compared to a negative control that has a value of 100, illustrated in FIG. 2. Screening of each dose of a specific compound is repeated 5 times. The dose used for all new molecules in all tests is 25 PPM or 25 μg/ml.
# (§6) In Table 4 the results of the anti-bacterial activity is given for the new molecules. The micro-organisms used are Staphylococcus aureus, MRSA, VRE, Enterococcus faecalis, Salmonella typhimurium and Pseudomonas aeruginosa.
# [3] = tested on: human T-lymphocyte cells (Molt4/C8); experiment: Cytostatic activity: inhibition of proliferation of Molt4/C8 cells; type: cell-based; details: Molt4/C8, 50% inhibitory concentration, cell proliferation, read-out: IC50 Molt4/C8
# Method: as §1
# [4] = tested on: Microsporum gypseum IHEM 3999 - ATCC 14683; experiment: Anti-fungal activity, Bioscreen C growth curve: Microsporum gypseum (mold); type: cell-based; details: Nannizzia gypsea, ATCC14683, 120 h; 25 PPM; 25° C., 5 days; negative control = 100; read-out: % of growth at a dose of 25 PPM compared to the negative control, Microsporum gypseum IHEM 3999 - ATCC 14683
# Method: as §2
# The inoculum size of the mould is standardized to 0.4-5.0×10^4 CFU/ml.
# as §4, §5
# (§7) In Table 5 the anti-fungal activity is given for the new molecules. The micro-organisms used were Candida albicans (a typical yeast) and Microsporum gypseum (a typical mold).
# as §2, with “Also for” for “For”, “the” for “the anti-bacterial and”, “Labsystems Oy, Finland” for “Labsystems, Finland,”, “used.” for “used. This is an automated reader-incubator.”
# (§8) The inoculum size of the yeast is standardized to 0.5-2.5×10^3 CFU/ml. The inoculum size of the mould is standardized to 0.4-5.0×10^4 CFU/ml. Yeasts are incubated 35° C. for 24 hours in RPMI 1640+MOPS buffer at 165 mM. Moulds also in RPMI 1640+MOPS buffer at 165 mM are incubated 25° C. for 5 days.
# (§9) As a control, all micro-organisms are screened against some reference antibiotics with known MIC. Screening of each dose of a specific compound is repeated 5 times.
# MRSA ATCC33591 = experiment: Anti-bacterial activity, Bioscreen C growth curve: MRSA; type: cell-based, methicillin-resistant Staphylococcus aureus (MRSA); details: Staphylococcus aureus, ATCC 33591 / LMG10147 / MRSA; 25 PPM; 35° C., 16 hours; negative control = 100; read-out: % of growth at 25 PPM compared to the negative control, MRSA ATCC33591 LMG10147
# Method: as §2, §3, §4, §5, §6
# [5] = tested on: Candida albicans IHEM 10284 - ATCC 24433; experiment: Anti-fungal activity, Bioscreen C growth curve: Candida albicans (yeast); type: cell-based; details: Candida albicans, ATCC24433; 25 PPM; 35° C., 24 hours; negative control = 100; read-out: % of growth at a dose of 25 PPM compared to the negative control, Candida albicans IHEM 10284 - ATCC 24433
# Method: as §2
# The inoculum size of the yeast is standardized to 0.5-2.5×10^3 CFU/ml.
# as §4, §5, §7
# as §2, with “Also for” for “For”, “the” for “the anti-bacterial and”, “Labsystems Oy, Finland” for “Labsystems, Finland,”, “used.” for “used. This is an automated reader-incubator.”
# as §8, §9
# VV = experiment: microbe, parasite or virus in culture; type: cell-based; details: Orthopoxvirus vaccinia, E6SM, read-out: EC50 VV (E6SM)
# [6] = tested on: murine mammary carcinoma cells (FM3A); experiment: Cytostatic activity: inhibition of proliferation of FM3A cells; type: cell-based; details: Mus musculus, 50% inhibitory concentration, cell proliferation, read-out: IC50 FM3A/0
# Method: as §1
# [7] = tested on: P. aeruginosa ATCC27853 LMG16217; experiment: Anti-bacterial activity, Bioscreen C growth curve: P. aeruginosa; type: cell-based, Pseudomonas aeruginosa; details: Pseudomonas aeruginosa; 25 PPM; 35° C., 16 hours; negative control = 100; read-out: % of growth at 25 PPM compared to the negative control, P. aeruginosa ATCC27853 LMG16217
# Method: as §2, §3, §4, §5, §6
# VZV OKA = experiment: microbe, parasite or virus in culture; type: cell-based, varicella zoster virus (VZV); details: Human alphaherpesvirus 3, HEL, read-out: EC50 VZV (HEL) OKA
# [8] = tested on: E. faecalis ATTC29212 LMG 8222; experiment: Anti-bacterial activity, Bioscreen C growth curve: E. faecalis; type: cell-based; details: Enterococcus faecalis, LMG8222, 35° C., 16 hours, negative control = 100, read-out: % of growth at 25 PPM compared to the negative control, E. faecalis ATTC29212 LMG 8222
# Method: as §2, §3, §4, §5, §6
# [9] = tested on: S. typhimurium ATTC700408; experiment: Anti-bacterial activity, Bioscreen C growth curve: S. typhimurium; type: cell-based; details: Salmonella enterica, LMG16217 / TYPHIMURIUM, 35° C., 16 hours, negative control = 100, read-out: % of growth at 25 PPM compared to the negative control, S. typhimurium ATTC700408 LMG16217
# Method: as §2, §3, §4, §5, §6
# [10] = tested on: human cervix carcinoma cells (HeLa); experiment: Cytostatic activity: inhibition of proliferation of HeLa cells; type: cell-based; details: 50% inhibitory concentration, cell proliferation
# Method: as §1
# CMV AD-169 strain = experiment: Anti-CMV activity: plaque reduction in HEL cells, AD-169 strain; type: cell-based, human cytomegalovirus (CMV); details: Human betaherpesvirus 5, AD169, HEL; Table 2; reduce virus plaque formation by 50%; virus input 100 PFU; read-out: IC50 CMV AD-169 Strain
# [11] = tested on: murine leukemia cells (L1210/0); experiment: Cytostatic activity: inhibition of proliferation of L1210/0 cells; type: cell-based; details: Mus musculus, L1210/0; 50% inhibitory concentration, cell proliferation; read-out: IC50 L1210/0
# Method: as §1
# VRE ATCC700221 = experiment: Anti-bacterial activity, Bioscreen C growth curve: VRE; type: cell-based, vancomycin-resistant Enterococcus (VRE); details: Enterococcus, 35° C., 16 hours, negative control = 100, read-out: % of growth at 25 PPM compared to the negative control, VRE ATCC700221
# Method: as §2, §3, §4, §5, §6
# VZV YS = experiment: Anti-viral activity: VZV-induced plaque formation in HEL cell cultures, YS strain; type: cell-based, varicella zoster virus (VZV); details: Human alphaherpesvirus 3, VZV-induced plaque formation in human embryonic lung HEL cell cultures, 50%
Compound,IC50 [1],EC50 (HSV-1 (KOS)),EC50 (HSV-2 (G)),EC50 (HIV-2 (ROD)),EC50 (HIV-1 (IIIB)),activity at 25 ppm [2],IC50 [3],activity at 25 ppm [4],activity at 25 ppm (MRSA ATCC33591),activity at 25 ppm [5],EC50 (VV),IC50 [6],activity at 25 ppm [7],EC50 (VZV OKA),activity at 25 ppm [8],activity at 25 ppm [9],IC50 [10],IC50 (CMV AD-169 strain),IC50 [11],activity at 25 ppm (VRE ATCC700221),also measured
CO[C@@H]1[C@@H](OC)[C@H](Sc2ccccc2)O[C@@H]2COC(=O)CC/C=C/CCC(=O)O[C@@H]12 [KPE00001002],> 200 mg/L,> 16 mg/L,> 16 mg/L,> 20 mg/L,> 100 mg/L,93.2%,> 200 mg/L,64%,100%,105%,> 16 mg/L,> 200 mg/L,92.2%,> 20 mg/L,94.9%,93.7%,> 200 mg/L,> 20 mg/L,> 200 mg/L,94%,EC50 (VZV YS): > 50 mg/L
CO[C@@H]1[C@@H](OC)[C@H](Sc2ccccc2)O[C@@H]2COCC=CCO[C@@H]12 [KPE00001014],> 200 mg/L,> 400 mg/L,240 mg/L,> 100 mg/L,> 100 mg/L,105%,> 200 mg/L,69%,113%,96%,> 400 mg/L,> 200 mg/L,96.7%,> 50 mg/L,95%,87.2%,> 200 mg/L,> 50 mg/L,> 200 mg/L,88.4%,EC50 (VZV YS): > 50 mg/L
CO[C@@H]1[C@@H](OC)[C@H](c2ccccc2)O[C@@H]2COC(=O)CC/C=C/CCC(=O)O[C@@H]12 [KPE00001018],132 ± 13 mg/L,> 16 mg/L,> 16 mg/L,> 100 mg/L,> 20 mg/L,100%,> 200 mg/L,79%,100%,93.5%,> 16 mg/L,> 200 mg/L,59.8%,> 50 mg/L,94.9%,96.6%,> 200 mg/L,> 20 mg/L,> 200 mg/L,94.5%,EC50 (VZV YS): > 50 mg/L
